# Several values for one entry are separate records, joined by “and”; a condition that tells them apart may be missing. Identical values can stand only once.
# Tested on: NQO1 activation in BEAS-2B cells
# Test: BEAS-2B cellular MTT assay of NQO1 activation, 0% HSA
# Type: cell-based
# Conditions: Homo sapiens, serum free, read-out: BEAS EC50 (nM) serum free
# Procedure, shortened: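 For the 0% HSA condition, cells were seeded into collagen plates in HSA-free medium. Culture was BEAS-2B in BEBM plus BEGM SingleQuots lacking GA-1000, held under 70% confluence, at a seeding density reaching 95-100% confluence by 48 h.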
row,Compound,EC50 [nM]
1,Cc1c2ccc3c1nnn3CCCCCCOc1ccc(cc1)C(=O)N1CCc3ccc(cc3C1)[C@H]2[C@H](C)C(=O)O [Compound 159],113
2,Cc1cc2ncc1C(CC(=O)O)c1ccc3c(c1)CN(CC3)C(=O)c1c(F)cc(cc1F)CCCCCO2 (stereo not drawn) [Compound 161],1.4
3,C[C@H](C(=O)O)[C@@H]1c2ccc(nc2)OCCCCCc2cc(F)c(c(F)c2)C(=O)N2CCc3ccc1cc3C2 [Compound 162],0.6
4,Cc1cc2ccc1C(=O)N1CCc3ccc(cc3C1)C(CC(=O)O)c1cnc(cc1C)OCCCCC2 (stereo not drawn) [Compound 163],2.6
5,C[C@@H](C(=O)O)[C@@H]1c2ccc(nc2)OCCCCCc2cc(F)c(c(F)c2)C(=O)N2CCc3ccc1cc3C2 [Compound 164],16
6,COc1cc2ccc1CCCCCn1nnc3c(C)c(cnc31)C(CC(=O)O)c1ccc3c(c1)CN(CC3)C2=O (stereo not drawn) [Compound 165],11.7
7,Cc1c2cnc3c1nnn3CCCCCc1cc(F)c(c(F)c1)C(=O)N1CCc3ccc(cc3C1)C2CC(=O)O (stereo not drawn) [Compound 168],1.3
8,Cc1cc2ncc1C(CC(=O)O)c1ccc3c(c1)CN(CC3)C(=O)c1ccc(cc1)OCCCCO2 (stereo not drawn) [Compound 169],84.4
9,Cc1cc2ccc1C(=O)N1CCc3ccc(cc3C1)C(CC(=O)O)c1cnc3c(nnn3CCCCCC2)c1C (stereo not drawn) [Compound 170],28.3
10,Cc1cc2ccc1C(=O)N1CCc3ccc(cc3C1)C(CC(=O)O)c1ccc3c(nnn3CCCCCC2)c1Cl (stereo not drawn) [Compound 171],1

# Same assay, conditions: serum free, read-out: BEAS EC50 (nM) serum free
row,Compound,EC50
1,Cc1c2ccc3c1nnn3CCCCCCOc1ccc(cc1)C(=O)N1CCc3ccc(cc3C1)[C@H]2[C@H](C)C(=O)O [Compound 159],122 nM
2,Cc1cc2ncc1C(CC(=O)O)c1ccc3c(c1)CN(CC3)C(=O)c1c(F)cc(cc1F)CCCCCO2 (stereo not drawn) [Compound 161],0.7 nM and 1.1 nM
3,Cc1cc2ccc1C(=O)N1CCc3ccc(cc3C1)C(CC(=O)O)c1cnc(cc1C)OCCCCC2 (stereo not drawn) [Compound 163],3.3 nM
4,C[C@@H](C(=O)O)[C@@H]1c2ccc(nc2)OCCCCCc2cc(F)c(c(F)c2)C(=O)N2CCc3ccc1cc3C2 [Compound 164],20.3 nM
5,COc1cc2ccc1CCCCCn1nnc3c(C)c(cnc31)C(CC(=O)O)c1ccc3c(c1)CN(CC3)C2=O (stereo not drawn) [Compound 165],13.3 nM
6,Cc1c2cnc3c1nnn3CCCCCc1cc(F)c(c(F)c1)C(=O)N1CCc3ccc(cc3C1)C2CC(=O)O (stereo not drawn) [Compound 168],1.2 nM
7,Cc1cc2ncc1C(CC(=O)O)c1ccc3c(c1)CN(CC3)C(=O)c1ccc(cc1)OCCCCO2 (stereo not drawn) [Compound 169],55.9 nM
8,Cc1cc2ccc1C(=O)N1CCc3ccc(cc3C1)C(CC(=O)O)c1cnc3c(nnn3CCCCCC2)c1C (stereo not drawn) [Compound 170],20.4 nM
9,Cc1cc2ccc1C(=O)N1CCc3ccc(cc3C1)C(CC(=O)O)c1ccc3c(nnn3CCCCCC2)c1Cl (stereo not drawn) [Compound 171],1.6 nM

# Tested on: NQO1 activation in BEAS-2B cells
# Test: BEAS-2B cellular MTT assay of NQO1 activation, 0.3% HSA
# Type: cell-based
# Conditions: BEAS+, read-out: BEAS+ EC50
# Procedure, shortened: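 MTT read-out in BEAS-2B cells grown in BEBM with SingleQuots, no GA-1000, kept below 70% confluence; plates coated with collagen, with 0.3% or 0% HSA medium, seeded to 95-100% confluency at 48 h, 37 °C, 5% CO2.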
row,Compound,EC50
1,Cc1c2ccc3c1nnn3CCCCCCOc1ccc(cc1)C(=O)N1CCc3ccc(cc3C1)[C@H]2[C@H](C)C(=O)O [Compound 159],480 nM
2,Cc1cc2ncc1C(CC(=O)O)c1ccc3c(c1)CN(CC3)C(=O)c1c(F)cc(cc1F)CCCCCO2 (stereo not drawn) [Compound 161],6 nM and 7.5 nM and 5.2 nM
3,Cc1cc2ccc1C(=O)N1CCc3ccc(cc3C1)C(CC(=O)O)c1cnc(cc1C)OCCCCC2 (stereo not drawn) [Compound 163],9.3 nM
4,C[C@@H](C(=O)O)[C@@H]1c2ccc(nc2)OCCCCCc2cc(F)c(c(F)c2)C(=O)N2CCc3ccc1cc3C2 [Compound 164],34 nM
5,COc1cc2ccc1CCCCCn1nnc3c(C)c(cnc31)C(CC(=O)O)c1ccc3c(c1)CN(CC3)C2=O (stereo not drawn) [Compound 165],21.1 nM
6,Cc1c2cnc3c1nnn3CCCCCc1cc(F)c(c(F)c1)C(=O)N1CCc3ccc(cc3C1)C2CC(=O)O (stereo not drawn) [Compound 168],3.4 nM
7,Cc1cc2ncc1C(CC(=O)O)c1ccc3c(c1)CN(CC3)C(=O)c1ccc(cc1)OCCCCO2 (stereo not drawn) [Compound 169],175 nM
8,Cc1cc2ccc1C(=O)N1CCc3ccc(cc3C1)C(CC(=O)O)c1cnc3c(nnn3CCCCCC2)c1C (stereo not drawn) [Compound 170],54.3 nM
9,Cc1cc2ccc1C(=O)N1CCc3ccc(cc3C1)C(CC(=O)O)c1ccc3c(nnn3CCCCCC2)c1Cl (stereo not drawn) [Compound 171],5.4 nM

# Same assay, conditions: Homo sapiens, BEAS+, read-out: BEAS+ EC50
row,Compound,EC50 [nM]
1,Cc1c2ccc3c1nnn3CCCCCCOc1ccc(cc1)C(=O)N1CCc3ccc(cc3C1)[C@H]2[C@H](C)C(=O)O [Compound 159],461
2,Cc1cc2ncc1C(CC(=O)O)c1ccc3c(c1)CN(CC3)C(=O)c1c(F)cc(cc1F)CCCCCO2 (stereo not drawn) [Compound 161],7.8
3,C[C@H](C(=O)O)[C@@H]1c2ccc(nc2)OCCCCCc2cc(F)c(c(F)c2)C(=O)N2CCc3ccc1cc3C2 [Compound 162],0.8
4,Cc1cc2ccc1C(=O)N1CCc3ccc(cc3C1)C(CC(=O)O)c1cnc(cc1C)OCCCCC2 (stereo not drawn) [Compound 163],10
5,C[C@@H](C(=O)O)[C@@H]1c2ccc(nc2)OCCCCCc2cc(F)c(c(F)c2)C(=O)N2CCc3ccc1cc3C2 [Compound 164],32.6
6,COc1cc2ccc1CCCCCn1nnc3c(C)c(cnc31)C(CC(=O)O)c1ccc3c(c1)CN(CC3)C2=O (stereo not drawn) [Compound 165],26
7,Cc1c2cnc3c1nnn3CCCCCc1cc(F)c(c(F)c1)C(=O)N1CCc3ccc(cc3C1)C2CC(=O)O (stereo not drawn) [Compound 168],3.7
8,Cc1cc2ncc1C(CC(=O)O)c1ccc3c(c1)CN(CC3)C(=O)c1ccc(cc1)OCCCCO2 (stereo not drawn) [Compound 169],155
9,Cc1cc2ccc1C(=O)N1CCc3ccc(cc3C1)C(CC(=O)O)c1cnc3c(nnn3CCCCCC2)c1C (stereo not drawn) [Compound 170],50.1
10,Cc1cc2ccc1C(=O)N1CCc3ccc(cc3C1)C(CC(=O)O)c1ccc3c(nnn3CCCCCC2)c1Cl (stereo not drawn) [Compound 171],8.3

# Biological target: HIS-Keap1 full length / Biotin-Nrf2 (16-mer) (Homo sapiens, UniProt Q14145)
# Sequence (Q14145 whole entry): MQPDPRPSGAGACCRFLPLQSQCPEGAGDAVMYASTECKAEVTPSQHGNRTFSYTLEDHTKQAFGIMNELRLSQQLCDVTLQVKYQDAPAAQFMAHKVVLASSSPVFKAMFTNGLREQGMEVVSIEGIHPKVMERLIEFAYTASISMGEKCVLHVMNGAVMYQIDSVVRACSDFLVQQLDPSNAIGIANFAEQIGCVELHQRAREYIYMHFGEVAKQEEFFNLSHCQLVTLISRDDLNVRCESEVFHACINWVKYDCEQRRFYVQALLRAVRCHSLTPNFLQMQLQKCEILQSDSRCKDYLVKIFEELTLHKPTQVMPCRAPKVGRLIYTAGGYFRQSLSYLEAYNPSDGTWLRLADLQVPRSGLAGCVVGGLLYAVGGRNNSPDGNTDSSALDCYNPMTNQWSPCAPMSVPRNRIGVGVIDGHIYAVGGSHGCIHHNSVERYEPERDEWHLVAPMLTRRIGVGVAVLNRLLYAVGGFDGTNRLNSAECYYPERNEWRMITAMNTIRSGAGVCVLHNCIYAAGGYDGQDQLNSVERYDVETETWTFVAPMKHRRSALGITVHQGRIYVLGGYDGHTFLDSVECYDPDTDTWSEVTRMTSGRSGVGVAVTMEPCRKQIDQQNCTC
# Test: biochemical
# Conditions: not given
row,Compound,IC50
1,Cc1c2ccc3c1nnn3CCCCCCOc1ccc(cc1)C(=O)N1CCc3ccc(cc3C1)[C@H]2[C@H](C)C(=O)O [Compound 159],6.9 nM and 7.2 nM
2,Cc1cc2ncc1C(CC(=O)O)c1ccc3c(c1)CN(CC3)C(=O)c1c(F)cc(cc1F)CCCCCO2 (stereo not drawn) [Compound 161],2.5 nM and 2.3 nM and 1 nM (2×)
3,C[C@H](C(=O)O)[C@@H]1c2ccc(nc2)OCCCCCc2cc(F)c(c(F)c2)C(=O)N2CCc3ccc1cc3C2 [Compound 162],2.1 nM and 2 nM
4,Cc1cc2ccc1C(=O)N1CCc3ccc(cc3C1)C(CC(=O)O)c1cnc(cc1C)OCCCCC2 (stereo not drawn) [Compound 163],2.4 nM
5,C[C@@H](C(=O)O)[C@@H]1c2ccc(nc2)OCCCCCc2cc(F)c(c(F)c2)C(=O)N2CCc3ccc1cc3C2 [Compound 164],51.2 nM and 59.3 nM
6,COc1cc2ccc1CCCCCn1nnc3c(C)c(cnc31)C(CC(=O)O)c1ccc3c(c1)CN(CC3)C2=O (stereo not drawn) [Compound 165],1.7 nM and 1.6 nM
7,Cc1c2cnc3c1nnn3CCCCCc1cc(F)c(c(F)c1)C(=O)N1CCc3ccc(cc3C1)C2CC(=O)O (stereo not drawn) [Compound 168],2.2 nM
8,Cc1cc2ncc1C(CC(=O)O)c1ccc3c(c1)CN(CC3)C(=O)c1ccc(cc1)OCCCCO2 (stereo not drawn) [Compound 169],68.9 nM and 66.2 nM
9,Cc1cc2ccc1C(=O)N1CCc3ccc(cc3C1)C(CC(=O)O)c1cnc3c(nnn3CCCCCC2)c1C (stereo not drawn) [Compound 170],6.3 nM and 6.5 nM
10,Cc1cc2ccc1C(=O)N1CCc3ccc(cc3C1)C(CC(=O)O)c1ccc3c(nnn3CCCCCC2)c1Cl (stereo not drawn) [Compound 171],2.5 nM

# Source: patent US12692274B2, “Tetrahydroisoquinoline derivatives for the treatment of red blood disorders and inflammatory diseases” (Sanofi, priority 2020, dated 2026)
